In patent publication US20150125550A1, “APPLICATION OF 2,9-DI-SEC-BUTYL-1,10-PHENANTHROLINE AS A GLIOBLASTOMA TUMOR CHEMOTHERAPY” (priority 2013, published 2015):
Read-outs that look alike come from different tables or passages of the source.

Key:
[1] = system: GL-26 glioma cells; assay: TUNEL apoptosis staining of cultured cells; format: cell-based, murine (C57BL/6)
Protocol: (§1) Histology: For brain tumor histology, mice were perfused intracardially with 4% formaldehyde in Na+/K+ balanced PBS and brains were extracted, incubated in 4% formaldehyde overnight followed by 30% sucrose in Na+/K+ balanced PBS. Brains were flash frozen in isopentane, embedded in optimal cutting temperature compound (OCT), cryosectioned in coronal sections (12 μm) and stained with hematoxylin and eosin. Another cohort of equivalently drug-treated mice was used for liver, lung and gut histology. The mice were then sacrificed on day 19, and the liver, lung and gut tissues were collected and placed in 4% formaldehyde in Na+/K+ balanced PBS overnight. The organs were then placed for 48 hrs in 70% EtOH before paraffin embedding and sectioning at 6 μm. Sections were then stained with hematoxylin and eosin and pathology was assessed blindly and independently by a trained pathologist. A TUNEL staining kit was obtained from TREVIGEN (NeuroTACS II In Situ Apoptosis Detection Kit, Cat#4823-30-K) and used for both ex-vivo slices and in-vitro staining according to manufacturers instructions.

[2] = Peripheral pathology and liver toxicity in non-tumor bearing mice; format: in vivo, C57BL/6 mice
Protocol: as §1
Intra-cardial blood was collected from the non-tumor bearing mice and subjected to centrifugation for 10 minutes to collect the serum. Aspartate transaminase and Alanine transaminase levels were measured in the serum using Bio Scientific (3913 Todd Lane Suite 312 Austin, Tex.) colorimetric kits (Cat#5605-01 and 3460-08 respectively).
To test if the low level of growth inhibition noted in HFF cells translated into lower systemic toxicity in-vivo, non-tumor bearing control and treatment groups of mice were treated with saline and SBP (10 mg/kg), respectively, on days one, seven, and 13. On day 19 following the first SPB or saline injection, the liver, lungs and proximal small intestine were collected for histopathological analysis.

[3] = system: GL-26 glioma cells; assay: SRB growth assay, GL-26 glioma cells, 48 hr drug incubation; format: cell-based, murine (C57BL/6); conditions: for IC50: SRB, read-out: IC50 against GL-26 tumor cells
Protocol: (§2) The murine (C57BL/6) glioma cell line, GL-26, which is highly tumorigenic in the C57BL/6 mice. GL-26 cells were cultured in DMEM/F12 supplemented with 10% FCS, 1% penicillin/streptomycin, 1% L-glutamine and 1% non-essential amino acids. Human foreskin fibroblasts (HFFs) were cultured in DMEM/F12 supplemented with 10% FCS and 1% penicillin/streptomycin. Primary murine astrocytes were purified from C57BL/6 neonate brains and cultured in DMEM/F12 supplemented with 10% FCS, 1% non-essential amino acids, 1% Lglutamine, 50 IU/ml penicillin, […] and 10 mM Hepes buffer.
(§3) The sulforhodamine B (SRB) cytotoxicity assays were adapted from Skehan et al. (22). Briefly, either HFF, primary astrocytes or GL-26 cells were plated in 96-well plates at a density of 4,000 cells/well in a volume of 100 µL overnight at 37° C. and 5% CO2. DMSO stock solutions of SBP, MSBP or TMZ were used at a concentration range of 0.1-25 μM for 48 hr before the supernatant was discarded and the cells were fixed for 1 hr with 10% cold trichloroacetic acid (100 μL, per well). Cells used in recovery assay received fresh media for 48 hrs following the 48 hr drug incubation. The plate was then washed 5 times with de-ionized water, air dried, and stained with 0.4% SRB for 10 min (50 μL, per well). After washing 5 times in 1% acetic acid and air-drying, bound SRB was dissolved in 10 mM unbuffered Tris base (pH 10.5; 100 μL, per well). Bound SRB was then read by absorbance at 492 nm on a SpectraMax plate reader (Molecular Devices). The percent survival was then calculated based upon the absorbance values relative to control wells (0 μM SBP in 0.1% DMSO).

[4] = system: A549 and H1703 lung cancer lines, and 886LN, Tu212, and Tu686 head/neck cancer lines; conditions: head-neck and lung tumor lines; cited from earlier work
[5] = system: primary murine astrocytes; assay: SRB toxicity assay on primary murine astrocytes; format: cell-based, murine (C57BL/6); conditions: Mus musculus, Astrocyte
Protocol: as §2, §3

[6] = system: A549 lung cancer cells; assay: SRB colorimetric assay, A549 lung cancer cells, 72 hours; format: cell-based, human; conditions: Homo sapiens; A549, 72 hours, average ± SD of three curves
Protocol: A549 cells were cultured in RPMI media supplemented with 10% Fetal Bovine Serum and 1% nonessential amino acids. Sub-culturing was carried out every 3-4 days and was completed by removing the supernatant media and treating the adherent cells with 1.0 mL of a 0.25% (w/v) Trypsin/0.5 mM EDTA solution. The cells were then treated for approximately 3 minutes in a 37° C. incubator under a 5% CO2 atmosphere. Trypsinization was stopped by the addition of 7.0 mL of cell culture media, the suspended cells were collected by centrifugation, and the resulting cell pellet was re-suspended in fresh cell culture media. The cells were then diluted 1:4 by volume and incubated in a 37° C. incubator with 5% CO2. Cells were grown to 80-90% confluency prior to being used in the SRB colorimetric assays.
To test the effects of compounds 1-18 on the growth of A549 lung cancer cells, SRB cytotoxicity assays were done as described by Skehan et al. Cells were maintained in RPMI media as described above, collected, and diluted so that cells could be seeded in 96-well plates at a density of 4,000 cells/well. The 96-well plate was incubated overnight at 37° C. under a 5% CO2 atmosphere. Subsequently, sterifiltered DMSO stock solutions of the drugs were added to the wells in various concentrations (0-25 μM) and the 96-well plate was incubated at 37° C. under a 5% CO2 for an additional 72 hours. The supernatant cell culture medium was then removed and the cells were fixed for 1 hour with 10% cold trichloroacetic acid (100 μL per well). The trichloroacetic acid was discarded and the plates were washed 5 times with de-ionized water and air dried. After being stained with 0.4% SRB ([…]) and incubated at room temperature for 10 minutes, the cells were washed 5 times with 1% acetic acid and air dried. The bound SRB was dissolved in 10 mM unbuffered Tris, pH 10.5 ([…]) for 10 minutes at room temperature, and the absorbance at 492 nm was measured using a microplate reader. The percent cell growth was then calculated based upon the absorbance values relative to control samples not containing any drug. Each drug concentration was done in triplicate to yield a percent growth vs. drug concentration curve, and these growth curves were subsequently repeated two additional times. The growth curves from the three experiments were then plotted in GraphPad Prism and best-fit curves were used to generate the IC50 values for each curve.

[7] = 10 mg/kg days 1, 7, 13, day 19, non-tumor bearing mice

IC50 ([3]; Mus musculus, GL26, 48 h): 3 to 6 µM | IC50 ([3]; listed as SBP): 3 µM | IC50 [6]: 0.42 ± 0.17 µM
SMILES: CCC(C)c1ccc2ccc3ccc(C(C)CC)nc3c2n1 (stereo not drawn) [Compound 1, 2,9-di-sec-butyl-1,10-phenanthroline]
apoptosis (TUNEL) in cultured GL-26 cells [1]: kills GL-26 cells by inducing apoptosis | histopathology, duodenum ([2]; 10 mg/kg days 1, 7, 13, day 19): no general pathology | histopathology, liver ([2]; 10 mg/kg days 1, 7, 13, day 19): some endothelial damage, but no overt hepatocyte damage | histopathology, lung ([2]; 10 mg/kg days 1, 7, 13, day 19): no overt pathology | serum alanine transaminase (ALT) [2, 7]: 49.71±14.61 U/L | serum aspartate transaminase (AST) [2, 7]: 212.3±14.62 U/L | side effects in healthy mice ([2]; mouse, in vivo): did not appear to experience any significant side effects | inhibition at 6 µM ([3]; Mus musculus, GL26, 6 μM, read-out: GL-26 cell growth inhibition): 66 ± 1% | inhibition at 25 µM ([3]; Mus musculus, GL26, 25 μM, read-out: GL-26 cell growth inhibition): 67 ± 0.5% | IC50 times lower than cisplatin [4]: 20-100 times | IC50 times lower than the parent gold(III) complex [4]: 4-14 times | in-vitro IC50 values [4]: in the nanomolar concentration regime | inhibition at 6 µM ([5]; 6 μM, 48 hours, read-out: astrocyte growth inhibition): 18% | inhibition at 25 µM ([5]; 25 μM, 48 hours, read-out: astrocyte growth inhibition): 37.3 ± 0.9% | IC50 ([5]; not reached at 25 μM, read-out: IC50 on non-cancerous glial cells (astrocytes)): > 25 µM
